The results in this text go back to patent US20250276993A1, “PSEUDO-DISACCHARIDE COMPOUNDS” (UNIVERSITEIT LEIDEN, priority 2022, published 2025).

SMILES strings stand for the structures.

A word on the IC50: it is the concentration that inhibits the measured activity by half.

Assay [1] concerns the target T1, GUSB (Homo sapiens, UniProt P08236).
T1 construct: Platelet lysates contain complex mixtures of overlapping enzyme activities, including both endo- and exo-β-glucuronidases HPSE and GUSB; endogenous in cells; host or cells: human platelet lysates
T1 sequence (P08236 23-651): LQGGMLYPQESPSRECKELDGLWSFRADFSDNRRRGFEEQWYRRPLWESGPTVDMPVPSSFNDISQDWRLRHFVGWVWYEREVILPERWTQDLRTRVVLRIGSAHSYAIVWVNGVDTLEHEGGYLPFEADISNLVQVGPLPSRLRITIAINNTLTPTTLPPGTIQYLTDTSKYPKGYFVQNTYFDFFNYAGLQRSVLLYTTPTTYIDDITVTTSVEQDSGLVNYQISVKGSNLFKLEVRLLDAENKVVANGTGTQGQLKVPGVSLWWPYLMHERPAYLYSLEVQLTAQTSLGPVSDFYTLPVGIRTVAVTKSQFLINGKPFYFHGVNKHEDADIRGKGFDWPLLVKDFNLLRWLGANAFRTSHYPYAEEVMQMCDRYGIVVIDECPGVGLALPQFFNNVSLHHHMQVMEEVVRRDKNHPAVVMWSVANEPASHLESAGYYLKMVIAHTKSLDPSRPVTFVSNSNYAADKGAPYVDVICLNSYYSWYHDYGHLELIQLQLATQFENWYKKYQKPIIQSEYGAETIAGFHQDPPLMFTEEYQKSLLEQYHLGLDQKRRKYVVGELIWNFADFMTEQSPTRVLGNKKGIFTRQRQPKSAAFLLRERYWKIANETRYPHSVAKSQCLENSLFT
Kind of assay: cABPP Assay 2, platelet lysates, GUSB. The format is biochemical. To be noted: preincubation with inhibitor. The protocol:
(§1) For further competitive ABPP studies, a working protein mixture was prepared by mixing the platelet lysates (87.5 μL), buffer (pH 5.0, 150 mM, 157.5 μL) and 3 M NaCl solution (35 μL). The enzymatic reactions were carried out at a constant concentration of read-out 7 (100 nM, final). For each inhibitor 2, 12 and 13, triplicate sets of ten 0.5 mL low protein binding Eppendorf tubes were prepared. Working solutions of each inhibitor (1% DMSO (w/v), 5 μL) in a range of ten concentrations (100, 50, 25, 12.5, 6.3, 3.1, 1.6, 0.8, 0.4, 0 μM) were prepared with MilliQ water and kept on ice. The working protein mixture (8 μL) was added in each protein low binding 0.5 mL Eppendorf tube, and 1 μL of inhibitor solution was added while on ice.
(§2) Further cABPP studies were undertaken using platelet lysates to provide a more physiologically realistic environment. Platelet lysates contain complex mixtures of overlapping enzyme activities, including both endo- and exo-β-glucuronidases HPSE and GUSB respectively, thus provide a challenging environment to test inhibitor specificity.

The target of assay [2] is T2, HPSE (platelet) (Homo sapiens, UniProt Q9Y251).
T2 construct: endogenous in cells; host or cells: human platelet lysates
T2 sequence (Q9Y251 158-543 limits assumed): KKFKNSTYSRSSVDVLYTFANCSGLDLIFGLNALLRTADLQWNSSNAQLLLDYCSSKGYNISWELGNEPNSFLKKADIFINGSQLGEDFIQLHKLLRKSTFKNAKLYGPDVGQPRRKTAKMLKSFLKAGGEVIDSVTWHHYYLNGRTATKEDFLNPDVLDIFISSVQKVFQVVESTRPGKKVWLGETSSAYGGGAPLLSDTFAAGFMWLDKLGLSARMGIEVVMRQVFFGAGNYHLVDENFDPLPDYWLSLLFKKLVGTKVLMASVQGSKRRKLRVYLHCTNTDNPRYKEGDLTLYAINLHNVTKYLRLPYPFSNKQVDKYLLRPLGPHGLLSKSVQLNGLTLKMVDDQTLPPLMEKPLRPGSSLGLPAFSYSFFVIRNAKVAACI
T2 sequence (Q9Y251 36-109 limits assumed): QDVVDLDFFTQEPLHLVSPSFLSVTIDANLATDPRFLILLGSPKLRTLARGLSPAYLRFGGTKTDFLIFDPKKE
Kind of assay: cABPP Assay 2, platelet lysates, HPSE. The format is biochemical. To be noted: for IC50: apparent IC50, in-gel competitive ABPP-based assay, platelet lysate, read-out: In vitro IC50 HPSE (platelet); for inhibitor concentration down to which HPSE signal is abrogated: platelet lysates, preincubation with inhibitor. The protocol: as §1, §2

Assay [3] deals with T3, rHPSE (Homo sapiens, UniProt Q9Y251).
T3 sequence (Q9Y251 36-109 limits assumed): T2 sequence (Q9Y251 36-109 limits assumed)
T3 sequence (Q9Y251 158-543 limits assumed): T2 sequence (Q9Y251 158-543 limits assumed)
Description: in-gel competitive ABPP, recombinant HPSE. To be noted: for IC50: apparent IC50, in-gel competitive ABPP-based assay, read-out: In vitro IC50 rHPSE. The format is biochemical. On the procedure:
(§3) ABP labelling reactions were carried out in Mcllvaine buffer (pH 5.5), 300 mM NaCl. For recombinant proteins 200 fmol of EcGH2, BpHep, AcGH79, HPSE or proHPSE was used (20 nM in 10 μl final reaction volume). For labeling cell lysates, 4-20 μg total protein was used. Labeling reactions were initiated by the addition of ABP compounds 7, 8 or 9 to a final concentration of 100 nM (unless otherwise specified), before incubation for 30 min at 37° C. with shaking. Following labeling, samples were denatured by boiling with Laemmli buffer for 5 min and resolved by SDS-PAGE. Gels were scanned using Typhoon-5 laser scanner platform (Cytiva), using the λEX 635 nm laser and 670BP30 emission filter. For competitive ABPP (cABPP) experiments, protein mixtures were preincubated with inhibitor (or buffer only control) for 1 h at 37° C. with shaking, before the addition of 7 to a final concentration of 100 nM, and subsequent incubation for 30 min at 37° C. with shaking. SDS-PAGE and analysis steps were carried out as above. For quantitative measurements, fluorescently labeled band intensities were calculated using Imagequant (Cytiva), and normalized to the corresponding band in the inhibitor free control lane. cABPP plots were prepared and analyzed using SigmaPlot 14.0 (Systat).
(§4) Competitive activity of compounds 2, 12 and 13 were investigated using cABPP Assay 2.
To gain insight into HPSE structure-activity relationships, apparent HPSE inhibition was tested for cyclitol 12, its disaccharidic analogue 13 and parent HPSE inhibitor 2 (FIG. 7a). […] Conversely, 13 could inactivate rHPSE down to 2 μM inhibitor concentration similar to 2.

Assay [4] has as its target T4, HPSE (Homo sapiens, UniProt Q9Y251).
T4 sequence (Q9Y251 36-109 limits assumed): T2 sequence (Q9Y251 36-109 limits assumed)
T4 sequence (Q9Y251 158-543 limits assumed): T2 sequence (Q9Y251 158-543 limits assumed)
Kind of assay: cABPP Assay 1, recombinant HPSE. Format: biochemical. To be noted: 1 h preincubation at 37° C., pH 5.5, 100 nM ABP 7.

Assay [5] addresses AcGH79 (Acidobacterium capsulatum, UniProt C1F2K5). Kind of assay: in-gel competitive ABPP, recombinant AcGH79. The format is biochemical, A. capsulatum. To be noted: Cy5-tagged β-D-glucuronidase ABP read-out, at the tested enzyme concentration. On the procedure:
as §3, §4

Assay [6] has as its target T5, HPSE (Homo sapiens, UniProt Q9Y251).
T5 construct: fluorescent ABPs 7, 8 and 9 were applied to whole cell lysates from a panel of human cancer cell lines; endogenous in cells; host or cells: U87, PANC1, SKBR3, MDA-MB-231, HT1080, platelet lysates
T5 sequence (Q9Y251 36-543): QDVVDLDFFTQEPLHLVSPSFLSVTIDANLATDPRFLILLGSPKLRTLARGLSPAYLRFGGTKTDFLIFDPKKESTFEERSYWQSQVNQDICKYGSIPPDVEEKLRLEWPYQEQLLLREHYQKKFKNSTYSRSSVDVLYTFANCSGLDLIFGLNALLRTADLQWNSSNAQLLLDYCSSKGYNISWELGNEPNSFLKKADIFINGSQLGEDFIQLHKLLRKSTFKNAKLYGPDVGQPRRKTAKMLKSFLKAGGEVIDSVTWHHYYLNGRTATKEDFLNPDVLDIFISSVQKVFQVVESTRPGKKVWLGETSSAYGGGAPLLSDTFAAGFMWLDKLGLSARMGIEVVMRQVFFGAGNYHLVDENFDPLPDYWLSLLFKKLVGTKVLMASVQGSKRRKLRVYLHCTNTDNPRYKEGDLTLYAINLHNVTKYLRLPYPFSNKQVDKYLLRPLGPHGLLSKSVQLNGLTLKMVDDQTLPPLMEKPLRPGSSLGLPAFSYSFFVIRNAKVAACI
Description: fluorescent ABP labelling of whole cell lysates. The format is biochemical. On the procedure:
as §3, with “(Systat). […]” for “(Systat).”

The target in assay [7] is T4, HPSE. Kind of assay: X-ray crystallography, ligand soaking of HPSE crystals. To be noted: crystal soaking. The source says: Xray diffraction data were collected at 100 K at beamlines i03 (HPSE-2, HPSE-3, HPSE-4, EcGUSB-1, BpHep-3), i04 (AcGH79-2, BpHep-2) and i04-1 (Apo-AcGH79, AcGH79-1, AcGH79-3) of the Diamond Light Source UK. Reflections were autoprocessed using the XIA2 pipeline. Complexes were solved by directly refining against their unliganded structures where isomorphous, or else solved by molecular replacement with PHASER (search model PDB accessions: 5E98 (HPSE), 3VNY (AcGH79), 3K46 (EcGUSB), 5BWI (BpHep)). […] Ligand coordinates were built using jLigand. Diagrams were generated using PyMOL.
HPSE—Well diffracting crystals of HPSE were obtained by the sitting-drop vapor-diffusion method at 20° C. using a well solution containing 0.1 M MES pH 5.5, 0.1 M MgCl2, 17% (w/v) PEG 3350, and a protein to well solution ratio of 200 nl:500 nl. Crystals typically appeared after 1 week. Inhibitor ligand complexes were obtained by transferring HPSE crystals to drops of well solution supplemented with 25% (v/v) ethylene glycol and 1-5 mM inhibitor. Crystals were incubated with ligand for ˜2-4 h, then directly harvested and flash-cooled in LN2 for data collection.
To better understand the molecular basis of interaction between our inhibitors and their targets, we turned to X-ray crystallography, using ligand soaking to derivatize enzymes in crystallo.

Assay [8] has as its system BpHep and AcGH79. Format: biochemical, B. pseudomallei; A. capsulatum. To be noted: cABPP Assay 1.

For the molecule `O=C(O)C1C2O[C@H]2C(O)C(O)[C@@H]1O[C@H]1OC(CO)[C@@H](O)C(O)C1O` (stereo in doubt) [Compound 13, 4,5-dihydroxy-3-((3,4,5-trihydroxy-6-(hydroxymethyl)tetrahydro-2H-pyran-2-yl)oxy)-7-oxabicyclo[4.1.0]heptane-2-carboxylic acid], the “effect on GUS signals” value in assay [1] is recorded as “without altering GUS signals”. Besides, in assay [2], the half-inhibitory concentration (IC50) was 5 ± 1 µM and the “inhibitor concentration down to which HPSE signal is abrogated” value was found to be 2.5 µM. In assay [3], the IC50 turned out to be 1 ± 1 µM. Besides, the “inhibitor concentration down to which rHPSE is inactivated” value in assay [3] (in-gel competitive ABPP) was found to be 2 µM.
As to `[N-]=[N+]=NCC(=O)NC1C(O)[C@H](O)C(CO)O[C@@H]1O[C@H]1C(O)C(O)[C@@H]2OC2C1C(=O)O` (stereo partly drawn) [Compound 6, 4-O-(2-N-azidoacetyl-2-deoxy-D-glucopyranosyl)-glucurono-cyclophellitol], the “HPSE inhibition (abrogation of labelling by ABP 7)” value (from here on “HPSE inhibition”) in assay [4] is “do not inhibit HPSE well”.
For `O=C(O)C1C2O[C@H]2C(O)C(O)[C@@H]1O[C@H]1CC(CO)[C@@H](O)C(O)C1O` (stereo in doubt) [Compound 12, 4,5-dihydroxy-3-((2,3,4-trihydroxy-5-(hydroxymethyl)cyclohexyl)oxy)-7-oxabicyclo[4.1.0]heptane-2-carboxylic acid], the IC50 in assay [5] turned out to be 1.2 ± 0.3 µM; in assay [2], 0.4 ± 0.2 µM; in assay [3], 0.5 ± 0.5 µM. Besides, in assay [1], the “effect on GUS signals” value is reported as “without altering GUS signals”. In assay [2], the “inhibitor concentration down to which HPSE signal is abrogated” value was 2.5 µM.
Take `CC(=O)NC1[C@@H](O[C@@H]2C(C(=O)O)C3O[C@H]3C(O)[C@H]2O)OC(CO)[C@@H](OCCCCCCCCNC(=O)CCCCC[N+]2=C(/C=C/C=C/C=C3/N(C)c4ccccc4C3(C)C)C(C)(C)c3ccccc32)[C@@H]1O` (stereo partly drawn) [Compound 9, 4-O-(2-N-acetyl-2-deoxy-4-O-(8-amino-Cy5-1-octyl)-α-D-glucopyranosyl)-glucurono-cyclophellitol]: the most substantial off-target result in assay [6] (10 μM ABP concentration) was “serum albumin”. The “HPSE specificity of labelling” value in assay [6] (ABP at 1 μM and 10 μM, lysates of U87, PANC1, SKBR3, MDA-MB-231, HT1080, platelets) is “markedly improved HPSE specificity compared to both 7 and 8”.
As to `O=C(O)C1C2O[C@H]2C(O)C(O)[C@@H]1O[C@@H]1CC(O)[C@H](O)C(CO)O1` (stereo partly drawn) [Compound 4, 4-O-(2-deoxy-D-glucopyranosyl)-glucurono-cyclophellitol], the “binding mode in HPSE active site cleft” value in assay [7] was “covalent linkages between their pseudo-anomeric carbons and the enzyme nucleophile Glu343”. In assay [4], the “HPSE inhibition” value was “inhibited HPSE at nanomolar concentrations”.
On to `NC1C(O)[C@H](O)C(CO)O[C@@H]1O[C@H]1C(O)C(O)[C@@H]2OC2C1C(=O)O` (stereo partly drawn) [Compound 5, 4-O-(2-amino-2-deoxy-D-glucopyranosyl)-glucurono-cyclophellitol], for which the “Inhibition of BpHep and AcGH79” value in assay [8] is reported as “all compounds apart from 5 showing activity”. For the same molecule, the “HPSE inhibition” value in assay [4] is listed as “do not inhibit HPSE well”.
